Results on seven compounds are retold here after US20140011755A1, “Cardiac Glycosides for Treating Autoimmune Disease” (Department of Veterans Affairs, priority 2010, published 2014).

Structures are written as SMILES. “Also recorded” adds a separate entry of the source. Read-outs that look alike come from different tables or passages of the source.

In one data set the test system is rheumatoid arthritis. As to conditions: cited from earlier work.
For the next data set, the system named is MRL-Ipr splenic B cells. Nature of the data set: ANA production by MRL-Ipr splenic B cells in vitro. In kind it is cell-based, mice. The note with it: B cells pre-treated with 0.8 nM mifepristone, digitoxin 33 nM.
The conditions of data set [1]: CHCI3/16% aqueous methanol (MeOH); cited from earlier work.
Data set [2] has as its system collagen-induced arthritis (CIA). In kind it is in vivo, DBA1/J mice. The note with it: for average clinical arthritis scores compared to vehicle, prevention study: first dose one day prior to boost, 0.3 mg/kg digitoxin, 0.03 mg/kg ouabain, […] proscillaridin, 0.35 mg/kg digoxin, […] bufalin, 15 mice per group.
The next data set has as its system TNF, IL-6 and IL-1beta. As to the kind of experiment: Serum cytokine ELISA in CIA treatment groups. The note with it: serum from 3 mice per treatment group, ELISA in triplicate. It counts as in vivo. An excerpt:
FIG. 9. Serum cytokine levels are similar between vehicle and cardiac glycoside treatment groups. […] The unpaired student t-test was used to assess significance.
For orientation: ELISA stands for enzyme-linked immunosorbent assay.

In data set [3] the test system is TNF-mediated NFκB activity in HeLa cells. Nature of the data set: NFκB luciferase reporter assay in TNF-stimulated HeLa cells. In kind it is cell-based. As to conditions: pre-treatment 6 hours with 0-500 nM, 50 ng/mL TNF. The method, then: FIG. 8. […] Values represent mean light units produced. Error bars represent SEM, and statistical significance was determined by unpaired T-test. Single and double asterisks represent P-values of 0.01 or 0.001, respectively. […] Samples were harvested at designated time points and were fractionated into nuclear and cytoplasmic lysates (Pierce). Lysates were quantified using BCA (Pierce), and were equally loaded according to total protein. Membranes were probed for levels of nuclear phospho-p65 (ReIA), phospho-ReIB, and histone (histone served as loading control and fractionation method control) and cytoplasmic degradation of IκBα (beta-tubulin served as loading control and fractionation method control).
HeLa cells were co-transfected with the reporter pNFκB-luc and control vector pTAL (Renilla) for 18 h prior to incubation with 0-500 nM cardiac glycoside for 6 h. Cells are stimulated with 50 ng/mL TNF. […] FIG. 8 B).

Another data set concerns T cell receptor. It counts as cell-based, mice. The procedure: (§1) Activity was monitored by ^3H-thymidine incorporation as a read-out for proliferation. […] Cell type(s) in the splenocyte population responsive to therapeutic concentrations of cardiac glycoside were determined by identifying the population of cells that responded to a dose-dependent decrease in activity in the presence of stimulant, defined as ligand(s) binding to cognate receptor(s). Activity was analyzed by: ^3H-thymidine or BrdU incorporation to monitor proliferation or by ELISA to monitor cytokine production. Splenic T lymphocytes were isolated by negative selection (MACS, Miltinyi Biotec) and are stimulated with PMA, ConA or through the TCR with anti-CD3/anti-CD28 Dynabeads (Invitrogen) and collagen II (all non-TNFR receptors/pathways). […] Peritoneal and bone marrow-derived macrophages were isolated from CIA mice in the presence of M-CSF growth factor and were stimulated with TNF and CD40 ligand (CD40L). […] Splenic B lymphocytes were isolated by negative selection (MACS, Miltinyi Biotec) and were stimulated with BAFF (BLyS), CD40L or through the BCR with anti-IgM u-chain specific antibodies.

For data set [4] the following is noted: cited from earlier work; for Half-life: in vivo; for Onset (m): onset of action; for Peak: time to maximal effect.
The nature of data set [5]: Serum concentration obtained with experimental dosing regimen, mouse. It counts as in vivo. As to conditions: 0.2 mg/kg per diem, i.p., experimentally determined. The method, then: Dosing regimens in humans vary according to the cardiac glycoside and constitution thereof. Table 3 depicts representative dosing regimens reported in the literature compared to experimental regiments used in mice that are representative of human dosing. Successful dosing detailed in this application includes but is not limited to 0.03-0.4 mg/kg., or from 0.001 to 5 mg/kg.

In data set [6] the test system is collagen-induced arthritis (CIA) joints. In kind it is in vivo, DBA1/J mice. The note with it: cross-sectioned ankle joints, CIA prevention groups. The method, then:
FIG. 7. Cardiac glycosides reduce joint pathology in the CIA mouse model for rheumatoid arthritis. Blinded scoring was performed on histologic sections of joints harvested from mice at the end of a CIA prevention study (A-C). Joints derived from three representative mice belonging to each prevention group (A-C) were decalcified, fixed and stained with tolidine blue, followed by scoring by an examiner blinded to treatment status for the severity of synovitis (inflammation), pannus (growth of the synovial lining), and erosions of bone. (D-G) Joints derived from three representative mice belonging to each prevention group were decalcified, fixed, and stained with hematoxylin and eosin. Cross-sectioned ankle joints from vehicle (D), digitoxin (E), ouabain (F) and proscillaridin (G) treated mice are presented. Error bars represent SEM, and asterisks indicate P-values less than 0.05 by Mann-Whitney test.
In treatment studies, mice were randomly enrolled in treatment groups and treatment commenced when the average clinical score was at or above 2. […] Daily dosing commenced upon enrollment at the abovementioned concentrations. […] Double-blinded histopathology scoring was conducted of cross-sectioned joints taken from cardiac glycoside and vehicle recipients. […] The results obtained from these animal studies indicate that cardiac glycosides are effective at reducing the clinical manifestations of disease and reducing joint pathology in mice with collagen arthritis.
The effects of the different cardiac glycoside treatments on CIA pathology was analyzed by histological scoring. Inflammatory cell infiltrate, synovial hyperplasia, pannus formation and articular cartilage and bone deterioration were evaluated in sectioned paws of treated mice at specific time-points throughout the disease course. […] The ELISA was developed and read using BD ELISA development kit. […]

Data set [7] deals with anti-type II collagen antibodies. In kind it is in vivo. The note with it: sera of 6 mice per prevention group, ANOVA. The method, then: FIG. 10. Cardiac glycosides reduce immunoglobulin levels in CIA mice. ELISAs for anti-type II collagen antibodies were performed on sera derived from 6 representative mice of each prevention group (A, B). Isotype specific antibodies for IgG1 and IgG2a (A) and IgM (B) were utilized. […] Statistical analysis was performed using ANOVA and asterisks indicate points at which the P-values were less than 0.001.
The effects of the different cardiac glycoside treatments on CIA pathology was analyzed by histological scoring. Inflammatory cell infiltrate, synovial hyperplasia, pannus formation and articular cartilage and bone deterioration were evaluated in sectioned paws of treated mice at specific time-points throughout the disease course. Histopathology scores of inflammation, pannus formation and bone and cartilage erosions were conducted by a blinded investigator on toludine blue-stained cross sections of fixed leg joints from representative mice in vehicle and glycoside groups. Pathology scoring for each of the three categories are on a scale of 0-4 with grade 0=normal, 1=mild inflammation, hyperplasia of the synovial lining, cartilage destruction without bone erosion, grades 2 to 4=increasing degrees of inflammatory cell infiltrate, synovial hyperplasia, pannus formation and cartilage and bone destruction. Error bars represent SEM and statistics were performed using the Mann-Whitney test. At the endpoint, mice are bled and serum is collected from representative mice and stored at −80 C until use. To determine anti-collagen II antibody levels and to characterize isotype prevalence, bovine collagen II (Chondrex) was coated O/N at 4 C on an ELISA plate, washed and incubated with 100 uL of 1:10 dilution of each serum sample (in triplicate) for 2 h at RT. Wells were washed and incubated with anti-mouse IgM u-chain specific (Jackson), anti-mouse IgG1, or anti-mouse IgG2a (Southern Biotech) for 1 h at RT. The ELISA was developed and read using BD ELISA development kit. Statistical analysis was performed using the two-tailed ANOVA and asterisks represent P-values less than 0.01.

The next data set has as its target T1, CD40 (Mus musculus, UniProt P27512).
T1 construct: Peritoneal and bone marrow-derived macrophages were isolated from CIA mice; endogenous in cells; host or cells: peritoneal and bone marrow-derived macrophages from CIA mice
T1 sequence (P27512 20-289): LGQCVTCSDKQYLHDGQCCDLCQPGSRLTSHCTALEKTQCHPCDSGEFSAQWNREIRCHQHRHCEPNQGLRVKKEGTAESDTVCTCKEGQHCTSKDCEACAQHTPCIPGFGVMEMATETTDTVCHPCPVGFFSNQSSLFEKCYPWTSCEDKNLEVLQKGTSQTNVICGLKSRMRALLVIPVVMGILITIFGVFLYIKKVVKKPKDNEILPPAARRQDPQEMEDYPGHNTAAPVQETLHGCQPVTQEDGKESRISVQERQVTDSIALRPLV
In kind it is cell-based, mice. As to conditions: pre-treatment with 3.3 or 33 nM. The method, then: as §1

A further data set concerns TNFR. In kind it is cell-based, mice. The note with it: pre-treatment with 3.3 or 33 nM. The method, then:
as §1

The conditions of data set [8]: injectable versus other formulations; cited from earlier work.

As to `CN(Cc1cnc2nc(N)nc(N)c2n1)c1ccc(C(=O)N[C@@H](CCC(=O)O)C(=O)O)cc1` [Methotrexate], the “patients having some response” value in the data set with rheumatoid arthritis is listed as 70%. Also, the onset of action in the data set with rheumatoid arthritis (rheumatoid arthritis patients) is 4-6 weeks.
Turning to `CC#C[C@]1(O)CC[C@H]2[C@@H]3CCC4=CC(=O)CCC4=C3[C@@H](c3ccc(N(C)C)cc3)C[C@@]21C` [mifepristone], the “effect of pre-treatment on digitoxin-specific blockade of autoantibody production” value with MRL-Ipr splenic B cells is “relieved”.
With `CC(=O)O[C@H]1C[C@H](O[C@H]2[C@@H](O)C[C@H](O[C@H]3[C@@H](O)C[C@H](O[C@H]4CC[C@@]5(C)[C@H](CC[C@@H]6[C@@H]5C[C@@H](O)[C@]5(C)[C@@H](C7=CC(=O)OC7)CC[C@]65O)C4)O[C@@H]3C)O[C@@H]2C)O[C@H](C)[C@H]1O[C@@H]1O[C@H](CO)[C@@H](O)[C@H](O)[C@H]1O` [Lanatoside C], the “Partition Coefficient” value in data set [1] was 16.2.
As for `C[C@H]1O[C@@H](O[C@H]2[C@@H](O)C[C@H](O[C@H]3[C@@H](O)C[C@H](O[C@H]4CC[C@@]5(C)[C@H](CC[C@@H]6[C@@H]5C[C@@H](O)[C@]5(C)[C@@H](C7=CC(=O)OC7)CC[C@]65O)C4)O[C@@H]3C)O[C@@H]2C)C[C@H](O)[C@@H]1O` [Digoxin, digoxin], in data set [2], the “average clinical arthritis scores compared to vehicle, prevention study” value was “significantly reduced”. Also, the “Serum cytokine levels (TNF, IL-6 and IL-1beta) versus vehicle” value in the data set with TNF, IL-6 and IL-1beta was “similar”. For the same compound, the “TNF-mediated NFκB activation (luciferase light units)” value (shortened to “TNF-mediated NFκB activation”) in [3] is given as “reduced TNF-mediated NFκB activation in a dose-dependent fashion”. For the same compound, the “proliferation of T cells in response to stimulation through the T cell receptor” value in the data set on T cell receptor is reported as “did not alter proliferation”. The Half-life in [4] is on record as 36 h. Besides, the “Partition Coefficient” value in data set [1] is 81.5.
In the case of `C[C@]12CC[C@H](O)C[C@H]1CC[C@@H]1[C@@H]2CC[C@]2(C)[C@@H](c3ccc(=O)oc3)CC[C@]12O` [bufalin], the “average clinical arthritis scores compared to vehicle, prevention study” value in data set [2] is given as “significantly reduced”. The “Serum cytokine levels (TNF, IL-6 and IL-1beta) versus vehicle” value with TNF, IL-6 and IL-1beta is on record as “similar”. Also, the “TNF-mediated NFκB activation” value in [3] is recorded as “reduced TNF-mediated NFκB activation in a dose-dependent fashion”.
As for `C[C@@H]1O[C@@H](O[C@H]2C[C@@H](O)[C@]3(CO)[C@H]4[C@H](O)C[C@]5(C)[C@@H](C6=CC(=O)OC6)CC[C@]5(O)[C@@H]4CC[C@]3(O)C2)[C@H](O)[C@H](O)[C@H]1O` [Ouabain, ouabain], the “Serum conc.” value in [5] is on record as 16 ng/mL. The “disease and inflammation (clinical score, paw thickness), dosing every three days i.p.” value in [2] (0.9 mg/kg digitoxin or 0.6 mg/kg ouabain, i.p., days −3, 0, 3, 6, 9, 12 after boost) was “significantly less disease and inflammation”. In data set [2] (0.9 mg/kg digitoxin or 0.6 mg/kg ouabain, sublingual, days −3, 0, 3, 6, 9, 12 after boost), the “onset of collagen arthritis, dosing every three days sublingual” value was “significantly inhibited the onset of collagen arthritis; also recorded: effective in preventing”. Moreover, the “development of CIA (Mean Visual Arthritis Score, Mean Paw Thickness), prevention study” value in [2] (daily i.p. from the day prior to induction, digitoxin 0.3 mg/kg, ouabain 0.03 mg/kg, proscillaridin […]) was “prevented the development of CIA”. Besides, the “average clinical arthritis scores compared to vehicle, prevention study” value in [2] is on record as “significantly reduced”. Besides, in [2] (murine model for rheumatoid arthritis, summary statement), the “prevention and treatment of collagen-induced arthritis (CIA)” value was “potently prevent and treat”. Also, the “immune cell infiltrate into the joints (hematoxylin and eosin)” value in data set [6] was “decreased amounts of immune cell infiltrate”. Moreover, in data set [7], the “anti-type II collagen IgG1 level relative to vehicle” value is “reduced levels” and the “anti-type II collagen IgM level relative to vehicle” value is “reduced levels”. For the same compound, in the data set with TNF, IL-6 and IL-1beta, the “Serum cytokine levels (TNF, IL-6 and IL-1beta) versus vehicle” value is given as “similar”. The “TNF-mediated NFκB activation” value in [3] is recorded as “reduced TNF-mediated NFκB activation in a dose-dependent fashion”. Moreover, the “CD40L-mediated activation of macrophage through CD40” value on CD40 is listed as “inhibits”. In addition, in the data set on T cell receptor (non-TNFR family member, therapeutic concentrations), the “proliferation of T cells in response to stimulation through the T cell receptor” value is on record as “did not alter proliferation”. Moreover, the “TNF-mediated activation of macrophage through TNFR” value with TNFR is “inhibits”. Moreover, in data set [4], the Half-life was 21 h, the “Onset (m)” value is listed as 5-10 m and the “Peak” value was 0.5 to 2 h. For the same compound, in [1], the “Partition Coefficient” value is listed as “very low”. The bioavailability by formulation entry in data set [8] is reported as “higher bioavailability with injectable formulations”.
For `C[C@H]1O[C@@H](O[C@H]2CC[C@@]3(C)[C@H](CC[C@@H]4[C@@H]3C[C@@H](O)[C@]3(C)[C@@H](C5=CC(=O)OC5)CC[C@]43O)C2)C[C@H](O)[C@@H]1O[C@H]1C[C@H](O)[C@H](O[C@H]2C[C@H](O)[C@H](O[C@@H]3O[C@H](CO)[C@@H](O)[C@H](O)[C@H]3O)[C@@H](C)O2)[C@@H](C)O1` [Deslanoside], in data set [4], the Half-life is 33 h, the “Onset (m)” value was 10-30 m and the “Peak” value was 1 to 2 h.
